Marks after values point to notes of the source that are not given here.
Columns and labels:
[1] = human, in vivo
Procedure: Food effect on bioavailability was analyzed.

[2] = test system: AKT phosphorylation (H1975 cells); experiment: Immunoblot analysis of H1975 cell lysates; format: cell-based, human
Procedure: (§1) For the H1975 immunoblot studies, 3×10^5 cells were plated in each well (12-well plate) and incubated for 16 h in complete RPMI 1640, rinsed with fetal bovine serum-free RPMI 1640, and incubated with serial dilutions of test compounds in fetal bovine serum-free medium for 2 h followed by stimulation with 100 ng/mL human recombinant EGF for 10 min. Whole-cell protein lysates were prepared as described above and centrifuged for 10 min at 13,000×g at 4° C. to remove any insoluble material. Total protein was determined using bicinchoninic acid reagent and an equal amount of protein was combined with LDS loading buffer (Invitrogen) according to the manufacturer's instructions. Proteins were separated by gel electrophoresis on 4% to 15% polyacrylamide gels, transferred to nitrocellulose membranes, and detected by immunoblotting. Antibody:antigen complexes were detected using chemiluminescence. The following antibodies from Cell Signaling Technology were used at a 1:1,000 dilution: anti-EGFR, anti-pEGFR^Tyr1068, anti-AKT, anti-pAKT^Ser473, anti-ERK, and anti-pERK^Thr202/Tyr204. The anti-β-actin primary antibody (Accurate Chemical and Scientific) was used at 1:10,000 and the horseradish peroxidase-coupled secondary antibodies were purchased from Jackson ImmunoResearch and used at 1:5,000.

[3] = test system: ERK phosphorylation (H1975 cells); experiment: Immunoblot analysis of H1975 cell lysates; format: cell-based, human
Procedure: as §1

H1975 xenografts = experiment: Immunohistochemical analysis of H1975 xenografts (TUNEL, CD31, Ki67); format: in vivo, mouse; conditions: 14-day dosing
Procedure: (§2) For immunohistochemical analysis of H1975, MDA-MB-231 and other xenografts, tumors were excised after euthanasia and fixed in zinc fixative (BD Biosciences) for 48 h before being processed into paraffin blocks. Serial sections at 5 μm were obtained from the area of largest possible surface for each tumor and stained using standard methods. The following antibodies were used: Ki67 (SP6; Labvision), CD31 (MECA.32; BD Biosciences), pERK^Thr202/Tyr204 (phospho-p44/42 mitogen-activated protein kinase; Cell Signaling Technology), pAKT^Ser473 (Cell Signaling Technology), and pEGFR^Tyr1068 (Cell Signaling Technology). For immunofluorescent staining, sections were then incubated with Alexa 594-conjugated goat anti-rabbit secondary antibody (Invitrogen) and mounted in Fluorescent Mounting Medium (DAKO) containing 4′,6-diamidino-2-phenylindole (Molecular Probes) as a nuclear counterstain. Fluorescent staining was visualized using a Zeiss Axiolmager and digitally captured using a Zeiss high-resolution camera coupled to AxioVision image analysis software. Two to three nonoverlapping representative fields were captured at ×200 or ×400 magnification depending on histologic readout and quantified using the integrated morphometric analysis functions in Metamorph software (Universal Imaging Corp.). Apoptotic cells were detected using terminal deoxynucleotidyl transferase-mediated dUTP nick end labeling in situ cell death detection kit according to the manufacturer's instructions (Roche Diagnostics GmbH).
(§3) CD31-positive tumor vessels, Ki67-positive proliferating cells, and pERK staining in each tumor section were identified and quantified using the integrated morphometric analysis functions in the ACIS automatic cellular imaging system (Clarient, Inc.) and reviewed by a blinded observer. Number of CD31-positive vessels were identified across 5 to 10 randomly chosen fields of equal size at ×100 magnification in viable tumor tissue and calculated as number of vessels per square millimeter for each tumor, averaged for each treatment group, and compared with vehicle-treated controls. Percentage Ki67-positive cells were calculated as the ratio between Ki67-positive cells divided by the total number of cells identified across 5 to 10 randomly chosen fields of equal size in viable tumor tissue. The results for each tumor and treatment group were averaged and compared with vehicle-treated controls. The level of pERK staining was determined as described above and calculated as the ratio of antibody staining divided by the total number of cells identified, averaged for each treatment group, and compared with vehicle-treated controls.
(§4) Results are presented as mean±SD or SE as indicated for each graph or table. For IC50 comparison in the A431 cell viability experiment, two sample Student's t tests were applied to determine P values for each IC50 pair assuming that the random fluctuations of replicates around the dose-response curve are distributed [log]normally with the individual replicates used as the ‘sample size’ for the t test (nine point dose response done in triplicate). For statistical analysis of immunohistochemical results from in vivo studies, two-tailed Student's t test analysis and Bonferroni correction were done to identify significant differences compared with vehicle control group (multiple use of a single vehicle control group) with a cumulative minimal requirement of P<0.05.

in vitro = in vitro ADME, mouse and human; conditions: rat, mouse, human, plasma
Neurokinin, NK1 = target: T1, Neurokinin, NK1 (Homo sapiens, UniProt P25103); experiment: NovaScreen assay; format: binding; conditions: read-out: Inhibition, 10 μM XL-647
T1 construct: NovaScreen

total HER2/ErbB2 = target: T2, total HER2/ErbB2 (Homo sapiens, UniProt P04626); experiment: In vivo receptor level, BT474 xenografts; set-up: species or system mouse
T2 construct: endogenous in cells; host or cells: BT474 tumour xenografts in mice (per the earlier reading)

[4] = test system: Phospho ERK Thr203/Tyr204; experiment: Immunohistochemical analysis of phosphorylation in H1975 xenografts; format: in vivo, mouse; conditions: 14-day dosing
Procedure: as §2, §3, §4

[5] = format: in vitro ADME; conditions: human
Dopamine Transporter = target: T3, Dopamine Transporter (Homo sapiens, UniProt Q01959); experiment: NovaScreen assay; format: binding
T3 construct: NovaScreen

Leukotriene B4, LTB4 = target: T4, Leukotriene B4, LTB4 (Homo sapiens, UniProt Q15722); experiment: NovaScreen assay; format: binding; conditions: read-out: Inhibition, 10 μM XL-647
T4 construct: NovaScreen
T4 sequence (Q15722 whole entry): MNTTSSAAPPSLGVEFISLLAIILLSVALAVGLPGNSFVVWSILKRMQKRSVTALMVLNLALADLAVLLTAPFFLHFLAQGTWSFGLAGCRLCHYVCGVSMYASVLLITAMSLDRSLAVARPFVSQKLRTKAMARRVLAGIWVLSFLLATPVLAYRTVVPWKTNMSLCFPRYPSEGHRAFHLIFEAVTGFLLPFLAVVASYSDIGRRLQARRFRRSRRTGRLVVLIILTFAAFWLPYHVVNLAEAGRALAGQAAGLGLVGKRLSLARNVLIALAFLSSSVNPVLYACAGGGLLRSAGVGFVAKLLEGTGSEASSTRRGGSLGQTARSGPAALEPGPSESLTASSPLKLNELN

T3 sequence (Q01959 whole entry): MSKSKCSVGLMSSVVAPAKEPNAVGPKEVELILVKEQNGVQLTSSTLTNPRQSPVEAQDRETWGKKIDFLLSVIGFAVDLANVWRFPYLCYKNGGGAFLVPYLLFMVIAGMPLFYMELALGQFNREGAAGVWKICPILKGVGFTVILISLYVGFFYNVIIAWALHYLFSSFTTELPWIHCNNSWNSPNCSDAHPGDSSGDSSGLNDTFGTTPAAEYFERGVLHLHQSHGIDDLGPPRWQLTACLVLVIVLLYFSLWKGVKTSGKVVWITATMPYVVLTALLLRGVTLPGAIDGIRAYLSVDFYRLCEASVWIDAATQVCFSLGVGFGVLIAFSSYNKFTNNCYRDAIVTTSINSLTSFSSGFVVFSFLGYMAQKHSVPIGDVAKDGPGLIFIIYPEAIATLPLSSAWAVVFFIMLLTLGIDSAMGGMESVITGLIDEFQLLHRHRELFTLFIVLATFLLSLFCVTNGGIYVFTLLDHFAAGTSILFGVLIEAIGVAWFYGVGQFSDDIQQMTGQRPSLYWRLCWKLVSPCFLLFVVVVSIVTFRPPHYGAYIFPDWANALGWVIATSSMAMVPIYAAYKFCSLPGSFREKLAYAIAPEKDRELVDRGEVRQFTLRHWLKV
T2 sequence (P04626 23-1255): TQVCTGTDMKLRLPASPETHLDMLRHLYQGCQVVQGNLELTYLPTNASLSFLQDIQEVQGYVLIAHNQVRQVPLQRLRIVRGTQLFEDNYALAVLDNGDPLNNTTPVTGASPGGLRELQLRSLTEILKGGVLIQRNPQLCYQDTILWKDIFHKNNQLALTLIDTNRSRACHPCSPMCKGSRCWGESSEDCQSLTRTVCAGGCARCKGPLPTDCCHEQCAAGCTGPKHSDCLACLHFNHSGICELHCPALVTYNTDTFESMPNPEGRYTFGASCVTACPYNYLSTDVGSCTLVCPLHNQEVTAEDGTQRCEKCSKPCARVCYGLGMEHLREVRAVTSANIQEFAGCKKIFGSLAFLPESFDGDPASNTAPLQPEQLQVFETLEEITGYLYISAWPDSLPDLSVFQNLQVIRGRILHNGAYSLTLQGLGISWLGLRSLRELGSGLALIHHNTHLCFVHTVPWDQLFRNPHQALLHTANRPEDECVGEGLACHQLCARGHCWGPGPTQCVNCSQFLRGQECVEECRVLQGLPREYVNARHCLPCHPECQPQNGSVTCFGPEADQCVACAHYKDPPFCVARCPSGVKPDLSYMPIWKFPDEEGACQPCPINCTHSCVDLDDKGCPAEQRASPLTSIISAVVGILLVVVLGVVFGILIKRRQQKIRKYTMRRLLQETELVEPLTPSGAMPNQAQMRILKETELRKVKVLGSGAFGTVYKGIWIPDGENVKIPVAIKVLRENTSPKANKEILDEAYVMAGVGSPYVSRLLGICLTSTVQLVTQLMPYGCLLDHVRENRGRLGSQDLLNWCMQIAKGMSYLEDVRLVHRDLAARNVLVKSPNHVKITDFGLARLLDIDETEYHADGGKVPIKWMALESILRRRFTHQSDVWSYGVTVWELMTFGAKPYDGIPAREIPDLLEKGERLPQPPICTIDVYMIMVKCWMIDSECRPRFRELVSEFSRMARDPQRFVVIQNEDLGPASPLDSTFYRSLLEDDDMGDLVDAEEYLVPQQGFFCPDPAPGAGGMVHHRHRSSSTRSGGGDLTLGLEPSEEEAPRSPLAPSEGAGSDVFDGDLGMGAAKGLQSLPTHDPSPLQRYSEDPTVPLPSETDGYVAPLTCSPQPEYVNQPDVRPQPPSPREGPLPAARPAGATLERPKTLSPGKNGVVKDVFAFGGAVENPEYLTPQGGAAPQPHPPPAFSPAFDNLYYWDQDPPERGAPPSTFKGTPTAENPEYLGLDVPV
T1 sequence (P25103 whole entry): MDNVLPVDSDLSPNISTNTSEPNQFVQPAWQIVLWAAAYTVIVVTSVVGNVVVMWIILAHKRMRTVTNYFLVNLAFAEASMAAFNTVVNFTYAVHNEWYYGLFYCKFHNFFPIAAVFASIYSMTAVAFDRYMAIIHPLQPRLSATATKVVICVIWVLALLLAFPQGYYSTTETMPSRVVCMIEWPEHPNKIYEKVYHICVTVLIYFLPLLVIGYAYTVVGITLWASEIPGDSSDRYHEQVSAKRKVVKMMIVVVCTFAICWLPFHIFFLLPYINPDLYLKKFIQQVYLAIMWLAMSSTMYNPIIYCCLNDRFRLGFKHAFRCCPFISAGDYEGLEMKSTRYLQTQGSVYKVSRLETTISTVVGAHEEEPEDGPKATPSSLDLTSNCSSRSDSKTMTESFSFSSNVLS

COc1cc2c(Nc3ccc(Cl)c(Cl)c3F)ncnc2cc1OC[C@@H]1C[C@@H]2CN(C)C[C@@H]2C1 [XL-647, N-(3,4-dichloro-2-fluorophenyl)-7-({[(3aR,5r,6aS)-2-methyloctahydrocyclopenta[c]pyrrol-5-yl]methyl}oxy)-6-(methyloxy)quinazolin-4-amine]
AUC increase in the presence of food [1]: approximately 18%
Cmax increase in the presence of food [1]: about 5%
phosphorylation of AKT, immunoblot [2]: inhibits the phosphorylation of AKT and ERK
phosphorylation of ERK, immunoblot [3]: inhibits the phosphorylation of AKT and ERK
CD31 Analysis % Reduction (H1975 xenografts; 10 mg/kg): 30.0^b %
CD31 Analysis MVC (H1975 xenografts; 10 mg/kg): 44
Ki67 Expression % Cells (H1975 xenografts; 10 mg/kg): 27%
Ki67 Expression % Reduction (H1975 xenografts; 10 mg/kg): 23.2^b %
TUNEL % Cells (H1975 xenografts; 10 mg/kg): 6%
CD31 Analysis % Reduction (H1975 xenografts; 30 mg/kg): 46.1^a %
CD31 Analysis MVC (H1975 xenografts; 30 mg/kg): 34
Ki67 Expression % Cells (H1975 xenografts; 30 mg/kg): 20%
Ki67 Expression % Reduction (H1975 xenografts; 30 mg/kg): 41.9^a %
TUNEL % Cells (H1975 xenografts; 30 mg/kg): 11%
CD31 Analysis % Reduction (H1975 xenografts; 100 mg/kg): 69.6^a %
CD31 Analysis MVC (H1975 xenografts; 100 mg/kg): 19
Ki67 Expression % Cells (H1975 xenografts; 100 mg/kg): 8.9%
Ki67 Expression % Reduction (H1975 xenografts; 100 mg/kg): 74.6^a %
TUNEL % Cells (H1975 xenografts; 100 mg/kg): 15%
fraction unbound (in vitro): 0.04 to 0.09
inhibition at 10 µM (Neurokinin, NK1): 20.4%
Single Dose Duration of Action (100 mg/kg, >50% inhibition) (total HER2/ErbB2): >96 h
Phospho ERK Thr203/Tyr204 % Cells ([4]; 10 mg/kg): 20 ± 4.3%
Phospho ERK Thr203/Tyr204 % Reduction ([4]; 10 mg/kg): 11.8%
Phospho ERK Thr203/Tyr204 % Cells ([4]; 30 mg/kg): 13 ± 4.9%
Phospho ERK Thr203/Tyr204 % Reduction ([4]; 30 mg/kg): 41.8^a %
Phospho ERK Thr203/Tyr204 % Cells ([4]; 100 mg/kg): 10 ± 3.7%
Phospho ERK Thr203/Tyr204 % Reduction ([4]; 100 mg/kg): 57.1^a %
protein bound [5]: 93-97.5%
IC50 (Dopamine Transporter): 2480 nM
inhibition at 10 µM (Dopamine Transporter; read-out: Inhibition, 10 μM XL-647): 87.1%
inhibition at 10 µM (Leukotriene B4, LTB4): 32.2%

From patent US9364479B2, “Use of a receptor-type kinase modulator for treating polycystic kidney disease” (SYMPHONY EVOLUTION, INC., priority 2010, dated 2016)
